From US7303895B1 (priority 1999, dated 2007)

What was measured:
Format in all cases: cell-based
[1] = target: T1, mutant yeast transformed by 4.17 (truncated tCTL1) (Torpedo marmorata, UniProt Q9I9B9, G501V); test: saturable [3H]choline absorption by mutant yeast transformed with clone 4.17; settings: 1 μM HC-3, 30° C., 30 minutes
T1 construct: the suppressor, 4.17, whose first ATG corresponds to M471 of tCTLI; expressed in transfected cells; host or cells: Saccharomyces cerevisiae ctr ise URA3 mutant strain, plasmid pFL61
Protocol: The transformed yeast was incubated at 30° C. for 30 minutes with 25 nM [3H]-choline.
The plasmids were isolated from colonies having a strong choline-dependent growth phenotype, and they were used to transform aliquot fractions of mutant yeast in order to eliminate the ctr reverse mutants and the yeast suppressor mutations.
The culture density was normalized by measuring the OD600.

[2] = target: T2, CTL1 in glioma cell C6 (Rattus norvegicus, UniProt Q8VII6, K645E/R267S); test: total absorption of choline by glioma C6 cells transiently transfected with CTL1pcDNA3; settings: hemicholinium-3; 48 hours after transfection; only C6-CTL1pcDNA3 cells, not empty-plasmid cells
T2 construct: expressed in transfected cells; host or cells: glioma C6 cells, transient transfection, vector pcDNA3
T2 sequence (Q8VII6 1-653 isoform Q8VII6-2 R267S/K645E): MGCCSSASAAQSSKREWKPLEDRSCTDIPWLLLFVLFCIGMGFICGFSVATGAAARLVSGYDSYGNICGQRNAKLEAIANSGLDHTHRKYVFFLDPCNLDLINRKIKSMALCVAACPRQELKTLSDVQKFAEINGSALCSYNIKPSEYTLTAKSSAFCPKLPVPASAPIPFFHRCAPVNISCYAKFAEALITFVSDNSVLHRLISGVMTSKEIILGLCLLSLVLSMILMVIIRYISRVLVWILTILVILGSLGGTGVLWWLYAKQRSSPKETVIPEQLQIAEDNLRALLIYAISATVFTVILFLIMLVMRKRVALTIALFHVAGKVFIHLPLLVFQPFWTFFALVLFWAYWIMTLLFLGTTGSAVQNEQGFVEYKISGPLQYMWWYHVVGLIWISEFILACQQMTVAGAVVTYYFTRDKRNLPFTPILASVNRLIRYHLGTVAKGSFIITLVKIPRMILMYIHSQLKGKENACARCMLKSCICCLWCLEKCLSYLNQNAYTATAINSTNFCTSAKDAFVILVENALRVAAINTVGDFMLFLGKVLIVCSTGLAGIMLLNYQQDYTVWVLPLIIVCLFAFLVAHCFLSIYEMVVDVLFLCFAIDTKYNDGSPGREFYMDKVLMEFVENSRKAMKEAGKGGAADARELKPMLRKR
Excerpt: FIGS. 8A-8C: Transient transfection of glioma cell C6 with the vector CTL1pcDNA3 described in FIG. 6.

[3] = test system: N18 cells; test: capture of tritiated choline by N18 cells transiently transfected with rCTL1a/pcDNA3, rCTL1b/pcDNA3 or pcDNA3; settings: 10 μM of the substance; 24 hours after transfection; same in all three transfections (rCTL1a, rCTL1b, empty pcDNA3); result not shown

T1 sequence (Q9I9B9 471-646 G501V): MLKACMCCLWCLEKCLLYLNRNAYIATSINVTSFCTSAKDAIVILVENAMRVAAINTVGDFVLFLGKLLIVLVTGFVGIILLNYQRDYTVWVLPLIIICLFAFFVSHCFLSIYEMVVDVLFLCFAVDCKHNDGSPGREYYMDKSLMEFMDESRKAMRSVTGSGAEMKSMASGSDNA

C[N+]1(C)CCOC(O)(c2ccc(-c3ccc(C4(O)C[N+](C)(C)CCO4)cc3)cc2)C1.[Br-].[Br-] (stereo not drawn) [HC-3, hemicholinium-3]
saturable [3H]choline absorption by the yeast transformed in 4.17 [1]: inhibited
inhibition of total absorption of choline [2]: inhibition
inhibition of capture of tritiated choline [3]: about 50%
